Experimental data as given in ChEMBL document CHEMBL1144566, “Synthesis, anti-tuberculosis activity, and 3D-QSAR study of 4-(adamantan-1-yl)-2-substituted quinolines” (Bioorg Med Chem, 2007).

Experiments:
[1] = system: Mycobacterium tuberculosis; test: Antimycobacterial activity against drug-sensitive Mycobacterium tuberculosis H37Rv by microplate alamar blue assay; type: functional, organism-based
[2] = system: Mycobacterium tuberculosis; test: Antimycobacterial activity against drug-sensitive Mycobacterium tuberculosis H37Rv at 3.125 ug/mL relative to isoniazid by microplate alamar blue assay; type: functional
[3] = system: Mycobacterium tuberculosis; test: Antimycobacterial activity against drug-sensitive Mycobacterium tuberculosis H37Rv at 6.250 ug/mL relative to isoniazid by microplate alamar blue assay; type: functional
[4] = system: Mycobacterium tuberculosis; test: Antimycobacterial activity against drug-sensitive Mycobacterium tuberculosis H37Rv at 1000 ug/mL relative to isoniazid by microplate alamar blue assay; type: functional

Row | Structure (SMILES) | IC50 [1] [µM] | inhibition at 3.125 µg/mL [2] [%] | inhibition at 6.25 µg/mL [3] [%] | inhibition at 1000 µg/mL [4] [%]
1 | O=C(NNC1CCCC1)c1cc(C23CC4CC(CC(C4)C2)C3)c2ccccc2n1 | 0.0813 | 99 |  | 
2 | O=C(N/N=C/c1ccc[nH]1)c1cc(C23CC4CC(CC(C4)C2)C3)c2ccccc2n1 | 0.0794 | 99 |  | 
3 | O=C(N/N=C/c1c(F)c(F)c(F)c(F)c1F)c1cc(C23CC4CC(CC(C4)C2)C3)c2ccccc2n1 | 66.1 |  | 16 | 
4 | CCCCCCNNC(=O)c1cc(C23CC4CC(CC(C4)C2)C3)c2ccccc2n1 | 4.79 |  | 77 | 
5 | O=C(N/N=C/c1ccccc1)c1cc(C23CC4CC(CC(C4)C2)C3)c2ccccc2n1 | 0.0776 | 99 |  | 
6 | CCCN(CCC)NC(=O)c1cc(C23CC4CC(CC(C4)C2)C3)c2ccccc2n1 | 5.13 |  | 75 | 
7 | O=C(N/N=C/c1cccs1)c1cc(C23CC4CC(CC(C4)C2)C3)c2ccccc2n1 | 0.0759 | 99 |  | 
8 | O=C(N/N=C/c1ccncc1)c1cc(C23CC4CC(CC(C4)C2)C3)c2ccccc2n1 | 6.46 |  | 70 | 
9 | CC(C)(C)/C=N/NC(=O)c1cc(C23CC4CC(CC(C4)C2)C3)c2ccccc2n1 | 145 |  | 10 | 
10 | O=C(N/N=C/c1c2ccccc2cc2ccccc12)c1cc(C23CC4CC(CC(C4)C2)C3)c2ccccc2n1 | 6.31 |  | 66 | 
11 | CCCCCCN(CCCCCC)NC(=O)c1cc(C23CC4CC(CC(C4)C2)C3)c2ccccc2n1 | 7.24 |  | 65 | 
12 | O=C(N/N=C/c1ccnc2ccccc12)c1cc(C23CC4CC(CC(C4)C2)C3)c2ccccc2n1 | 0.0692 | 99 |  | 
13 | COc1ccc2ccccc2c1/C=N/NC(=O)c1cc(C23CC4CC(CC(C4)C2)C3)c2ccccc2n1 | 5.75 |  | 69 | 
14 | O=C(NN(CCc1ccccc1)CCc1ccccc1)c1cc(C23CC4CC(CC(C4)C2)C3)c2ccccc2n1 | 9.55 |  | 55 | 
15 | O=C(N/N=C/c1ccc(O)cc1)c1cc(C23CC4CC(CC(C4)C2)C3)c2ccccc2n1 | 5.37 |  | 73 | 
16 | O=C(NN(CCCc1ccccc1)CCCc1ccccc1)c1cc(C23CC4CC(CC(C4)C2)C3)c2ccccc2n1 | 13.8 |  | 45 | 
17 | O=C(NNC1CCCCC1)c1cc(C23CC4CC(CC(C4)C2)C3)c2ccccc2n1 | 0.0776 | 99 |  | 
18 | O=C(NN(C(=O)c1ccccc1)C(=O)c1ccccc1)c1cc(C23CC4CC(CC(C4)C2)C3)c2ccccc2n1 | 11.2 |  | 51 | 
19 | O=C(N/N=C/c1ccccn1)c1cc(C23CC4CC(CC(C4)C2)C3)c2ccccc2n1 | 2.88 |  | 84 | 
20 | CCC(C)NNC(=O)c1cc(C23CC4CC(CC(C4)C2)C3)c2ccccc2n1 (stereo not drawn) | 0.513 |  | 97 | 
21 | O=C(NNc1cccc(F)c1)c1cc(C23CC4CC(CC(C4)C2)C3)c2ccccc2n1 | 0.0759 | 99 |  | 
22 | O=CNNC(=O)c1cc(C23CC4CC(CC(C4)C2)C3)c2ccccc2n1 | 75.9 |  | 19 | 

Row | Structure (SMILES) | IC50 [1] [µM] | inhibition at 3.125 µg/mL [2] [%] | inhibition at 6.25 µg/mL [3] [%] | inhibition at 1000 µg/mL [4] [%]
23 | COc1ccc(/C=N/NC(=O)c2cc(C34CC5CC(CC(C5)C3)C4)c3ccccc3n2)c2ccccc12 | 9.55 |  | 57 | 
24 | CCCNNC(=O)c1cc(C23CC4CC(CC(C4)C2)C3)c2ccccc2n1 | 3.8 |  | 82 | 
25 | CN(C)c1ccc(/C=N/NC(=O)c2cc(C34CC5CC(CC(C5)C3)C4)c3ccccc3n2)c2ccccc12 | 3.31 |  | 79 | 
26 | O=C(N/N=C/c1cccnc1)c1cc(C23CC4CC(CC(C4)C2)C3)c2ccccc2n1 | 13.5 |  | 53 | 
27 | CCCCNNC(=O)c1cc(C23CC4CC(CC(C4)C2)C3)c2ccccc2n1 | 13.5 |  | 55 | 
28 | O=C(N/N=C/c1ccc(C(F)(F)F)cc1C(F)(F)F)c1cc(C23CC4CC(CC(C4)C2)C3)c2ccccc2n1 | 6.46 |  | 64 | 
29 | CC(C)NNC(=O)c1cc(C23CC4CC(CC(C4)C2)C3)c2ccccc2n1 | 16.6 |  | 51 | 
30 | CCCCN(CCCC)NC(=O)c1cc(C23CC4CC(CC(C4)C2)C3)c2ccccc2n1 | 8.13 |  | 64 | 
31 | CC/C=N/NC(=O)c1cc(C23CC4CC(CC(C4)C2)C3)c2ccccc2n1 | 7.76 |  | 69 | 
32 | O=C(N/N=C/c1cccc(O)c1)c1cc(C23CC4CC(CC(C4)C2)C3)c2ccccc2n1 | 0.148 |  | 99 | 
33 | O=C(NNc1ccccc1F)c1cc(C23CC4CC(CC(C4)C2)C3)c2ccccc2n1 | 0.151 |  | 99 | 
34 | CC(=O)NNC(=O)c1cc(C23CC4CC(CC(C4)C2)C3)c2ccccc2n1 | 0.0871 | 99 |  | 
35 | C=CCN(CC=C)NC(=O)c1cc(C23CC4CC(CC(C4)C2)C3)c2ccccc2n1 | 55 |  | 22 | 
36 | O=C(N/N=C/c1ccnc2cc(Cl)ccc12)c1cc(C23CC4CC(CC(C4)C2)C3)c2ccccc2n1 | 0.661 |  | 95 | 
37 | COc1ccc(/C=N/NC(=O)c2cc(C34CC5CC(CC(C5)C3)C4)c3ccccc3n2)cc1 | 56.2 |  | 20 | 
38 | NNC(=O)c1cc(C23CC4CC(CC(C4)C2)C3)c2ccccc2n1 | 0.195 |  | 99 | 
39 | CC(C)/C=N/NC(=O)c1cc(C23CC4CC(CC(C4)C2)C3)c2ccccc2n1 | 9.77 |  | 63 | 
40 | O=C(NNc1ccc(F)cc1)c1cc(C23CC4CC(CC(C4)C2)C3)c2ccccc2n1 | 1.12 |  | 93 | 
41 | O=C(NNCCCc1ccccc1)c1cc(C23CC4CC(CC(C4)C2)C3)c2ccccc2n1 | 14.1 |  | 50 | 
42 | O=C(N/N=C/c1ccccc1Cl)c1cc(C23CC4CC(CC(C4)C2)C3)c2ccccc2n1 | 0.0229 |  |  | 99
43 | O=C(N/N=C/c1ccco1)c1cc(C23CC4CC(CC(C4)C2)C3)c2ccccc2n1 | 0.0794 | 99 |  | 
44 | O=C(NNCCc1ccccc1)c1cc(C23CC4CC(CC(C4)C2)C3)c2ccccc2n1 | 7.94 |  | 65 | 
